Test results taken from the supplement of paper PMC10307832.

Key:
Assay in all cases: relative viability (nuclei count vs DMSO), 5 days (fraction); higher = more cells survive
XMD13-2 + Linsitinib = compound: C1CC1C(=O)NC2=NNC3=C2C=CC(=C3)C4=CC(=CC=C4)C(=O)NC5CC5 [XMD13-2] + C[C@]1(O)C[C@@H](c2nc(-c3ccc4ccc(-c5ccccc5)nc4c3)c3c(N)nccn32)C1 [Linsitinib] (partner 1 µM)
In short: (§1)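 Each reported value is a median over duplicate plates. It expresses relative viability: treated-well nuclei count divided by vehicle-well nuclei count. Lung cancer cell lines in 1536-well plates were dosed by pin tool a day after seeding, alone with one drug or with a fixed anchor-drug dose plus five library-drug doses (not always all listed) in √10 steps, and nuclei were counted after 5 days.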

XMD13-2 + Tozasertib = compound: C1CC1C(=O)NC2=NNC3=C2C=CC(=C3)C4=CC(=CC=C4)C(=O)NC5CC5 [XMD13-2] + Cc1cc(Nc2cc(N3CCN(C)CC3)nc(Sc3ccc(NC(=O)C4CC4)cc3)n2)n[nH]1 [Tozasertib] (partner 0.1 µM)
In short: as §1

XMD13-2 + Vorinostat = compound: C1CC1C(=O)NC2=NNC3=C2C=CC(=C3)C4=CC(=CC=C4)C(=O)NC5CC5 [XMD13-2] + O=C(CCCCCCC(=O)Nc1ccccc1)NO [Vorinostat] (partner 1 µM)
In short: as §1

Dasatinib + Navitoclax = compound: Cc1nc(Nc2ncc(C(=O)Nc3c(C)cccc3Cl)s2)cc(N2CCN(CCO)CC2)n1 [Dasatinib] + CC1(C)CCC(c2ccc(Cl)cc2)=C(CN2CCN(c3ccc(C(=O)NS(=O)(=O)c4ccc(N[C@H](CCN5CCOCC5)CSc5ccccc5)c(S(=O)(=O)C(F)(F)F)c4)cc3)CC2)C1 [Navitoclax] (partner 0.5 µM)
In short: as §1

| Cell Line | relative viability (XMD13-2 + Linsitinib; first compound 0.05 µM) | relative viability (XMD13-2 + Linsitinib; first compound 0.1581 µM) | relative viability (XMD13-2 + Linsitinib; first compound 0.5 µM) | relative viability (XMD13-2 + Linsitinib; first compound 1.581 µM) | relative viability (XMD13-2 + Linsitinib; first compound 5 µM) | relative viability (XMD13-2 + Tozasertib; first compound 0.05 µM) | relative viability (XMD13-2 + Tozasertib; first compound 0.1581 µM) | relative viability (XMD13-2 + Tozasertib; first compound 0.5 µM) | relative viability (XMD13-2 + Tozasertib; first compound 1.581 µM) | relative viability (XMD13-2 + Tozasertib; first compound 5 µM) | relative viability (XMD13-2 + Vorinostat; first compound 0.05 µM) | relative viability (XMD13-2 + Vorinostat; first compound 0.1581 µM) | relative viability (XMD13-2 + Vorinostat; first compound 0.5 µM) | relative viability (XMD13-2 + Vorinostat; first compound 1.581 µM) | relative viability (XMD13-2 + Vorinostat; first compound 5 µM) | relative viability (Dasatinib + Navitoclax; first compound 0.005 µM) | relative viability (Dasatinib + Navitoclax; first compound 0.01581 µM) | relative viability (Dasatinib + Navitoclax; first compound 0.05 µM) | relative viability (Dasatinib + Navitoclax; first compound 0.1581 µM) | relative viability (Dasatinib + Navitoclax; first compound 0.5 µM) |
| --- | --- | --- | --- | --- | --- | --- | --- | --- | --- | --- | --- | --- | --- | --- | --- | --- | --- | --- | --- | --- |
| BEN | 1.07 | 0.884 | 0.963 | 0.866 | 0.898 | 0.512 | 0.436 | 0.491 | 0.488 | 0.42 | 0.625 | 0.543 | 0.585 | 0.574 | 0.487 | 0.0479 | 0.0657 | 0.0572 | 0.0599 | 0.0611 |
| EPLC-272H | 1.21 | 1.08 | 1.25 | 1.06 | 0.284 | 0.228 | 0.289 | 0.262 | 0.269 | 0.136 | 0.474 | 0.473 | 0.374 | 0.33 | 0.0998 | 1.32 | 1.06 | 1.39 | 0.959 | 0.473 |
| LK-2 | 0.715 | 0.518 | 0.554 | 0.676 | 0.422 | 0.187 | 0.169 | 0.173 | 0.18 | 0.149 | 0.439 | 0.201 | 0.212 | 0.198 | 0.137 | 0.782 | 0.594 | 0.373 | 0.292 | 0.245 |
| HCC-827 | 0.873 | 0.9 | 0.874 | 0.9 | 0.863 | 0.428 | 0.409 | 0.427 | 0.401 | 0.386 | 0.838 | 0.937 | 0.956 | 0.765 | 1.06 | 1.01 | 1.01 | 1.01 | 0.719 | 0.188 |
| NCI-H1993 | 0.807 | 0.78 | 0.731 | 0.743 | 0.694 | 0.627 | 0.529 | 0.565 | 0.615 | 0.545 | 1.2 | 0.814 | 0.769 | 0.613 | 0.907 | 0.872 | 0.7 | 0.724 | 0.581 | 0.736 |
| NCI-H647 | 1.33 | 1.22 | 1.15 | 1.17 | 1.09 | 0.585 | 0.265 | 0.176 | 0.229 | 0.135 | 0.706 | 0.59 | 0.822 | 0.746 | 0.425 | 0.983 | 0.731 | 0.392 | 0.307 | 0.152 |
| NCI-H460 | 1.01 | 0.953 | 0.973 | 0.72 | 0.997 | 0.529 | 0.407 | 0.472 | 0.474 | 0.415 | 1 | 0.723 | 0.828 | 0.696 | 0.766 | 0.828 | 0.912 | 0.815 | 0.563 | 0.217 |
| EMC-BAC-2 | 0.912 | 0.82 | 0.841 | 0.848 | 0.689 | 0.284 | 0.28 | 0.19 | 0.273 | 0.267 | 0.502 | 0.43 | 0.438 |  | 0.36 | 1.13 | 0.939 | 0.936 | 0.548 | 0.28 |
| NCI-H23 | 0.558 | 0.579 | 0.624 | 0.537 | 0.58 | 0.325 | 0.382 | 0.397 | 0.644 | 0.355 | 0.681 | 0.46 | 0.625 | 0.646 | 0.675 | 0.828 | 0.716 | 0.896 | 0.496 | 0.315 |
| NCI-H1793 | 0.882 | 0.811 | 0.852 | 0.713 | 0.999 | 0.432 |  | 0.334 | 0.379 | 0.322 | 1.03 | 0.602 | 0.746 | 0.666 | 0.928 | 0.323 | 0.182 | 0.238 | 0.166 | 0.152 |
| A-427 | 1.11 | 1.14 | 1.18 | 1.09 | 1 | 0.213 | 0.199 | 0.2 | 0.159 | 0.195 | 0.927 | 0.852 | 0.862 |  | 0.705 | 0.891 | 0.92 | 0.673 | 0.476 | 0.495 |
| NCI-H322M | 0.963 | 0.864 | 1.07 | 0.891 | 0.891 | 0.563 | 0.52 | 0.456 | 0.456 | 0.517 | 0.927 | 0.984 | 0.914 |  | 1.05 | 1.28 | 1.27 | 1.31 | 0.524 | 0.237 |
| COR-L23 | 1.01 | 0.917 | 1.02 | 0.848 | 0.872 | 0.232 | 0.18 | 0.197 | 0.18 | 0.185 | 0.58 | 0.566 | 0.737 | 0.368 | 0.544 | 1.01 | 0.85 | 0.797 | 0.55 | 0.347 |
| NCI-H2085 | 0.894 | 0.819 | 0.873 | 0.984 | 0.963 | 0.824 | 0.806 | 0.905 | 0.821 | 0.754 | 0.897 | 0.745 | 0.842 | 0.711 | 0.81 | 0.757 | 0.929 | 0.737 | 0.411 | 0.245 |
